Experiments:
Assay in all cases: Postemergent herbicidal activity, greenhouse
Format in all cases: in vivo
[1] = test system: AMARE Amaranthus retroflexus L. (redroot pigweed)
Experimental: (§1) Evaluation of Postemergent Herbicidal Activity. Seeds or nutlets of the desired test plant species were planted in Sun Gro Metro-Mix® 360 planting mixture, which typically has a pH of 6.0 to 6.8 and an organic matter content of about 30 percent, in plastic pots with a surface area of 64 square centimeters (cm^2). When required to ensure good germination and healthy plants, a fungicide treatment and/or other chemical or physical treatment was applied. The plants were grown for 7-21 days (d) in a greenhouse with an approximate 15 hour (h) photoperiod which was maintained at about 23-29° C. during the day and 22-28° C. during the night. Nutrients and water were added on a regular basis and supplemental lighting was provided with overhead metal halide 1000-Watt lamps as necessary. The plants were employed for testing when they reached the first or second true leaf stage.
(§2) A weighed amount, determined by the highest rate to be tested, of each test compound was placed in a 25 milliliter (mL) glass vial and was dissolved in 4 mL of a 97:3 volume per volume (v/v) mixture of acetone and dimethyl sulfoxide (DMSO) to obtain concentrated stock solutions. […] The concentrated stock solutions obtained were diluted with 20 mL of an aqueous mixture containing acetone, water, isopropyl alcohol, DMSO, Atplus 411F crop oil concentrate, and Triton® X-155 surfactant in a 48.5:39:10:1.5:1.0:0.02 v/v ratio to obtain spray solutions containing the highest application rates. Additional application rates were obtained by serial dilution of 12 mL of the high rate solution into a solution containing 2 mL of a 97:3 v/v mixture of acetone and DMSO and 10 mL of an aqueous mixture containing acetone, water, isopropyl alcohol, DMSO, Atplus 411F crop oil concentrate, and Triton X-155 surfactant in a 48.5:39:10:1.5:1.0:0.02 v/v ratio to obtain ½X, ¼X, ⅛X and 1/16X rates of the high rate. Compound requirements are based upon a 12 mL application volume at a rate of 187 liters per hectare (L/ha). Formulated compounds were applied to the plant material with an overhead Mandel track sprayer equipped with 8002E nozzles calibrated to deliver 187 L/ha over an application area of 0.503 square meters (m^2) at a spray height of 18 inches ([…]) above the average plant canopy height. Control plants were sprayed in the same manner with the solvent blank.
(§3) Treatments consisted of the methyl ester of 4-amino-3-chloro-6-(4-chloro-2-fluoro-3-methoxyphenyl)pyridine-2-carboxylic acid (Cmpd 1) as technical grade material and fluazifop-P-butyl (Fusilade® DX), haloxyfop-P-methyl (GALLANT® super), and quizalofop-P-ethyl (Assure® II) alone and in combination. The form of compound of formula (I) and fluazifop-P-butyl, haloxyfop-P-methyl, and quizalofop-P-ethyl were applied on an acid equivalent basis.
(§4) The treated plants and control plants were placed in a greenhouse as described above and watered by subirrigation to prevent wash-off of the test compounds. After 14 d, the condition of the test plants as compared with that of the untreated plants was determined visually and scored on a scale of 0 to 100 percent where 0 corresponds to no injury and 100 corresponds to complete kill.
(§5) Results of testing mixtures in accordance with this disclosure and of the components of the mixtures separately against various common weeds in greenhouse trials are reported in the following tables. The reported values are of percent (%) control or percent (%) injury, visually rated. Colby's equation was used to determine the herbicidal effects expected from the mixtures (Colby, S. R. Calculation of the synergistic and antagonistic response of herbicide combinations. Weeds 1967, 15, 20-22.).
(§6) More specifically, the following equation was used to calculate the expected activity of mixtures containing two active ingredients, A and B:
(§7) A=observed efficacy of active ingredient A at the same concentration as used in the mixture; B=observed efficacy of active ingredient B at the same concentration as used in the mixture. […]

[2] = test system: BRSNW Brassica napus (winter oilseed rape)
Experimental: as §1, §2, §3, §4, §5, §6, §7

[3] = test system: CHEAL Chenopodium album L. (common lambsquarters)
Experimental: as §1, §2, §3, §4, §5, §6, §7

[4] = test system: CIRAR Cirsium arvense (L.) Scop. (Canada thistle)
Experimental: as §1, §2, §3, §4, §5, §6, §7

[5] = test system: IPOHE Ipomoea hederacea (L.) Jacq. (ivyleaf momingglory)
Experimental: as §1, §2, §3, §4, §5, §6, §7

[6] = test system: STEME Stellaria media (L.) Vill. (common chickweed)
Experimental: as §1, §2, §3, §4, §5, §6, §7

[7] = test system: VIOTR Viola tricolor L. (wild violet)
Experimental: as §1, §2, §3, §4, §5, §6, §7

Measured: Visual Growth Reduction (%) 14 DAA Obs

CCOC(=O)[C@@H](C)Oc1ccc(Oc2cnc3cc(Cl)ccc3n2)cc1 [Quizalofop-P-ethyl, quizalofop-P-ethyl]
0%: [1]; Quizalofop-P 37.5 g ae/ha | [1]; Quizalofop-P 75 g ae/ha | [1]; Quizalofop-P 150 g ae/ha | [2]; Quizalofop-P 37.5 g ae/ha | [2]; Quizalofop-P 75 g ae/ha | [2]; Quizalofop-P 150 g ae/ha | [3]; Quizalofop-P 37.5 g ae/ha | [3]; Quizalofop-P 75 g ae/ha | [3]; Quizalofop-P 150 g ae/ha | [4]; Quizalofop-P 37.5 g ae/ha | [4]; Quizalofop-P 75 g ae/ha | [4]; Quizalofop-P 150 g ae/ha | [5]; Quizalofop-P 37.5 g ae/ha | [5]; Quizalofop-P 75 g ae/ha | [5]; Quizalofop-P 150 g ae/ha | [6]; Quizalofop-P 37.5 g ae/ha | [6]; Quizalofop-P 75 g ae/ha | [6]; Quizalofop-P 150 g ae/ha | [7]; Quizalofop-P 37.5 g ae/ha | [7]; Quizalofop-P 75 g ae/ha | [7]; Quizalofop-P 150 g ae/ha

— patent US20140213446A1, “HERBICIDAL COMPOSITIONS AND METHODS USING COMBINATIONS OF 4-AMINO-3-CHLORO-6-(4-CHLORO-2-FLUORO-3-METHOXYPHENYL)PYRIDINE-2-CARBOXYLIC ACID OR A DERIVATIVE THEREOF AND AN ARYLOXYPHENOXY PROPIONATE ACCASE INHIBITOR HERBICIDE” (DOW AGROSCIENCES LLC, priority 2013, published 2014)
